Legend:
[1] = Inhibition of reverse transcriptase Y181C mutant in HIV-1 3B infected in human MT4 cells assessed as inhibition of viral replication after 5 days by cell titer glo based luciferase reporter gene assay
[2] = Inhibition of HIV-1 3B reverse transcriptase K103N mutant infected in human MT4 cells assessed as inhibition of viral replication after 5 days by cell titer glo based luciferase reporter gene assay

COc1cc(F)c(C(=O)c2ccnc(Nc3ccc(C#N)cc3)n2)c(F)c1
EC50 [1]: > 500 nM
EC50 [2]: 347 nM

— BindingDB's records for doi:10.1016/j.ejmech.2016.06.026 (Czech Academy of Sciences, 2016)
